Each structure is given as a SMILES string.

These results are taken from patent publication US20090215708A1, “Treatment of Sexual Dysfunction with Proton Pump Agonists” (priority 2008, published 2009).

Data set [1] deals with subject with sexual dysfunction related to penis size below the 10th percentile. Nature of the data set: Daily oral cinchomeronic acid in a subject with penis size below the 10th percentile. It is filed as in vivo, human. The text has this: A subject who has reported long-term sexual dysfunction related to a penis size below the 10th percentile is given an oral formulation of cinchomeronic acid, at a daily dose sufficient to maintain therapeutic blood levels of the agent.

In data set [2] the test system is subject diagnosed with Female Sexual Arousal Disorder (FSAD). In words: Daily oral fusicoccin in a subject with Female Sexual Arousal Disorder. Type of data set: in vivo, human. The note with it: daily oral formulation. The text has this:
A subject who has been diagnosed with Female Sexual Arousal Disorder (FSAD) for over 6 months is given a daily oral formulation of fusicoccin, at a dose sufficient to maintain therapeutic blood levels of the agent. […] The use of this preparation is well accepted by both the subject and partner.

For data set [3], the system named is proton pump (plasma membrane H+ ATPases). To be noted: plants; cited from earlier work.

For `O=C(O)c1ccncc1C(=O)O` [cinchomeronic acid, 3,4-dicarboxypyridine], the adverse side effects entry in data set [1] is recorded as “no adverse side effects”. Further, in data set [1] (two months after beginning treatment), the “penile circumference and length compared to before treatment” value is recorded as “measurable increase”.

As to `C=CC(C)(C)OC[C@H]1O[C@H](O[C@@H]2C3=C([C@H](C)COC(C)=O)C[C@H](O)[C@]3(C)/C=C3/[C@@H](COC)CC[C@H]3[C@@H](C)[C@H]2O)[C@H](O)[C@@H](OC(C)=O)[C@@H]1O` [fusicoccin], the adverse side effects entry in data set [2] is recorded as “without adverse side effects”. Also, the “symptoms, including lubrication-swelling response during sexual activity” value in data set [2] (one week after beginning treatment) is recorded as “significant improvement in symptoms”. Further, the “proton pumping across the plasma membrane” value in data set [3] is reported as “activate”.
